The values that follow come from US5599966A, “Substituted ethanolamine esters” (BYK Nederland BV, priority 1992, dated 1997).

Structures are written as SMILES. Structures can show the parent of a compound that is named as a salt.

One assay relates to guinea pig trachea. In words: relaxing action on guinea pig trachea contracted beforehand with methacholine (in vitro, organ bath). The assay is classed as cell-based. The note with it: Cavia porcellus, read-out: -log[EC50 (mol/l)] (converted). How it is done: For this, the relaxing action on a guinea pig trachea which has been contracted beforehand with a suitable dose of methacholine is measured for the compounds to be investigated. The trachea of male guinea pigs (200-300 g) is removed and divided into individual segments and each segment is suspended in an organ bath with 118.5 mM NaCl, 4.7 mM KCl, 1.2 mM MgSO4, 2.5 mM CaCl2, 1.2 mM KH2 PO4, 25 mM NaHCO3 and 10 mM glucose at 37° C. Oxygen to which 5% of CO2 has been added is passed permanently through the solution. After stabilization, the trachea is contracted with a suitable dose of methacholine. Thereafter, a dose/effect curve is plotted with the test substances in a cumulative manner. The concentration (mol/l) which corresponds to 50% of the maximum effect (EC50) is then determined from this curve. This EC50 is thus a measure of the activity of the compounds according to the invention.
The serial number in the table agrees with the number of the compounds in the examples. The number n indicates the number of investigations.
Regarding `Nc1c(Cl)cc(C(O)CNCCOCCOC(=O)Cc2ccccc2)cc1Cl` (stereo not shown) [Compound 106, {2-[2-[2-(4-Amino-3,5-dichlorophenyl)-2-hydroxyethylamino]ethoxy]ethyl}phenylacetate-fumarate], the EC50 was 7.94 nM.

Still in this assay, the particulars now being: Cavia porcellus; in vitro relaxation of methacholine-contracted guinea pig trachea segments, cumulative dose/effect curve, 37° C., n = 3 to 6; read-out: -log[EC50 (mol/l)] (converted).
As to `Nc1c(Cl)cc(C(O)CNCCCCCC(=O)OCCc2cccc3ccccc23)cc1Cl` (stereo not shown) [Compound 19, 2-(1-Naphthyl)ethyl 6-[2-(4-amino-3,5-dichlorophenyl)-2-hydroxyethylamino]hexanoate], the EC50 is 6.31 nM.
The same measure, in the same setting: the figure for `Nc1c(Cl)cc(C(O)CNCCCCCC(=O)OCCc2ccccn2)cc1Cl` (stereo not shown) [Compound 32, 2-(2-Pyridyl)ethyl6-[2-(4-amino-3,5-dichlorophenyl)-2-hydroxyethylamino]hexanoate-hemifumarate] is 15.8 nM.
Take `O=C(CCCCCNCC(O)c1ccc(O)c(CO)c1)OCCCCc1ccccc1` (stereo not shown) [Compound 64, 4-Phenylbutyl 6-[2-hydroxy-2-(4-hydroxy-3-hydroxymethylphenyl)ethylamino]hexanoate-oxalate]: the EC50 was 10 nM.
Still for that read-out and setting: the figure for `Nc1c(Cl)cc(C(O)CNCCCCCCOC(=O)Cc2cccc3ccccc23)cc1Cl` (stereo not shown) [Compound 34, {6-[2-(4-Amino-3,5-dichlorophenyl)-2-hydroxyethylamino]-1-hexyl}1-naphthylacetate-maleate] is 3.16 nM; for `N#Cc1cc(C(O)CNCCCCCC(=O)OCCc2ccccc2)cc(Cl)c1N` (stereo not shown) [Compound 74, 2-Phenylethyl 6-[2-(4-amino-5-chloro-3-cyanophenyl)-2-hydroxyethylamino]hexanoate-hemifumarate] it is 3.98 nM.
On the same count and under the same terms, the figure for `Nc1c(Cl)cc(C(O)CNCCCCCC(=O)OCCc2c[nH]c3ccccc23)cc1Cl` (stereo not shown) [Compound 103, 2-(3-Indolyl)ethyl 6-[2-(4-amino-3,5-dichlorophenyl)-2-hydroxyethylamino]hexanoate-hemifumarate] is 3.16 nM; for `Nc1c(Cl)cc(C(O)CNCCCCCC(=O)OCCc2ccc(O)cc2)cc1Cl` (stereo not shown) [Compound 37, 2-(4-Hydroxyphenyl)ethyl 6-[2-(4-amino-3,5-dichlorophenyl)-2-hydroxyethylamino]hexanoate] it is 2 nM; for `Nc1ccc(C(O)CNCCCCCCOC(=O)Cc2ccccc2Cl)c(Cl)c1Cl` (stereo not shown) [Compound 82, {6-[2-(4-Amino-2,3-dichlorophenyl)-2-hydroxyethylamino]-1-hexyl}2-chlorophenylacetate-hemifumarate] it is 10 nM.
Still for that read-out and setting: the figure for `Nc1c(Cl)cc(C(O)CNCCCCCCOC(=O)CCc2ccc(O)cc2)cc1Cl` (stereo not shown) [Compound 17, {6-[2-(4-Amino-3,5-dichlorophenyl)-2-hydroxyethylamino]-1-hexyl}[3-(4-hydroxyphenyl)]propionate-hydrochloride] is 20 nM.
